In paper PMC6934184, “Selective DNA-PKcs inhibition extends the therapeutic index of localized radiotherapy and chemotherapy” (The Journal of Clinical Investigation, 2019):

Target: T1, FLT3 D835Y (Homo sapiens, UniProt P36888, D835Y)
T1 construct: purchased Thermo Fisher Scientific (Life Technologies) SelectScreen
Test: SelectScreen Z'LYTE
Assay type: biochemical
Method in brief: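 SelectScreen broad panel; activity (Z'LYTE, Adapta) plus binding formats. ATP: Km app for CSF1R Z'LYTE; 10 for CAMK1 Adapta. Readout = % per kinase.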

## CN(C(=O)CN1CCOCC1)c1ccc2sc3c(-c4cccc5c(=O)cc(N6CC7CCC(C6)O7)oc45)cccc3c2c1 [NU5455]
  inhibition at 1 µM: -3.9%
